In patent US10513680B2, “Green microalgae lacking a functional DYRKP-1 gene, for use for increased production of feedstock” (COMMISSARIAT A L'ENERGIE ATOMIQUE ET AUX ENERGIES …, priority 2014, dated 2019):

Key:
[1] = system: WT strains; assay: Inhibition of TAG and starch accumulation by LOX inhibitor in WT strains under nitrogen starvation; format: cell-based, Chlamydomonas reinhardtii; conditions: in response to nitrogen starvation
[2] = system: std1 mutant; assay: Inhibition of TAG and starch accumulation by LOX inhibitor in std1 mutant under nitrogen starvation; format: cell-based, Chlamydomonas reinhardtii; conditions: 5 mM catechol, after 6-day under nitrogen starvation (FIG. 14)
Description: FIGS. 14A and 14B depict the inhibition of TAG and starch accumulation in the mutant by LOX inhibitors.
FIG. 14A depicts starch accumulation.
FIG. 14B depicts TAG accumulation.
The starch and chlorophyll contents were measured according to (Chochois et al., 2010). One mL of culture was harvested, centrifuged at ˜20,000 g for 10 min, resuspended in 1 mL of methyl alcohol for chlorophyll extraction and stored at −80° C. The pellets were dried, and 400 μL of water were added. To solubilize starch, the samples were autoclaved setting “dry cycle”. Subsequently, starch was degraded to glucose by adding 200 μL amyloglucosidase solution (1 U/mL, Roche) and incubation at 55° C. for 1-2 h. Using an automated sugar analyzer (Ysi model 2700 select, Yellow Springs, Ohio, USA), glucose concentration were determined. Chlorophyll was extracted by methanol, and chlorophyll a and b were determined by measuring the absorbance at 653, 666 and 750 nm using UV-VIS spectrophotometer (SAFAS UVmc2 with the software SP2000).
C. reinhardtii cells (eq. to 2 mm^3 total cellular volume) were harvested by centrifuge at 1000 g for 2 min (at 4° C.). The cells were either frozen right away under −80° C., or quenched in hot isopropanol for immediate lipid extractions. Total cellular lipids were extracted using a mixture of hexane and isopropanol (Li-Beisson et al., 2010). […]

`Oc1ccccc1O` [catechol] was tested, and the TAG accumulation [1] was “inhibited”, the starch accumulation [1] was “no effect” and the TAG accumulation [2] was “inhibited”. The starch accumulation [2] was “inhibited”.
